Source: US20110152271A1, “Compositions and methods for ophthalmic delivery of nasal decongestants” (priority 2009, published 2011)
Like-named read-outs stand apart in the source and are kept apart here.

Key:
[1] = Method: 1 drop of 0.025% brimonidine was applied to the right eye of each patient. […] Then, the breathing function was measured in each nostril separately 10 minutes later. Then, 1 dose of 0.0045% brimonidine nasal spray was applied into the left nostril and the ease of breathing was again measured in each nostril separately 10 minutes later.
[2] = 0.025% brimonidine topically to one eye; 10 minutes; 11 individuals
Method: 11 individuals were asked to assess the patency of each nostril by alternately closing one. They were then given 0.025% brimonidine topically to one randomly selected eye. After 10 minutes each nostril was alternately closed to assess the patency of the contralateral nostril and compare to its patency before applying brimonidine to the eye. […] Nasal patency refers to a basic evaluation of the degree to which a nostril is open (i.e. unblocked).

[3] = 0.025% brimonidine in one eye
Method: Eight (8) human subjects were administered 0.025% brimonidine. The subjects were administered with the drug in one eye and then asked to assess themselves in the mirror to see if they perceived a difference in conjunctival hyperemia between eyes. The drug was administered around 9:15 am. The assessments were made 5 minutes after the administration and 4 hours after the administration. After the four hours assessment, the drug was re-administered.

Brc1c(NC2=NCCN2)ccc2nccnc12 [brimonidine]
whiteness of the treated right eye ([1]; 1 drop of 0.025% brimonidine to the right eye): In all patients, the right eye has become whiter
patients reporting reduced nasal congestion in the right nostril ([1]; 1 drop of 0.025% brimonidine to the right eye, 10 minutes later, three subjects with records): all three patients reported reducing nasal congestion in the right nostril
patients reporting reduced nasal congestion in both nostrils ([1]; after eye drop, 1 dose of 0.0045% brimonidine nasal spray into the left nostril, 10 minutes later, three subjects with records): all three patients reported reduced nasal congestion in the both nostrils
increase in patency in the contralateral nostril [2]: not in the contralateral
patients with noticeable increase in patency in the ipsilateral nostril [2]: 9 of the 11
subjects reporting reduced hyperemia and increased whiteness in the treated eye ([3]; 5 min assessment): eight of eight
subjects reporting reduced hyperemia and increased whiteness in the treated eye ([3]; four hour assessment): eight of eight
subjects reporting reduced nasal congestion in the nostril on the same side as the treated eye ([3]; four hour assessment): six of eight
